Source: PMC9508756, “Selected coffee (Coffea arabica L.) extracts inhibit intestinal α-glucosidases activities in-vitro and postprandial hyperglycemia in SD Rats” (BMC Complementary Medicine and Therapies, 2022)

Legend:
[1] = molecular target: rat intestinal α-glucosidase; experiment: Rat small intestinal α-glucosidase inhibition assay (pNPG substrate); assay type: biochemical
Experimental: In order to investigate the inhibitory effect of coffee extracts on the absorption of glucose, rat intestinal α-glucosidase inhibitory activity was determined using the substrate p-nitrophenyl-α-D-glucopyranoside (pNPG) according to [28] with a slight modification. A total of 0.6 g of rat-intestinal acetone powder was suspended in 9 mL of 0.1 M sodium phosphate buffer 0.9%, and the suspension was sonicated for 12 times 30 s at 4 °C. It was then centrifuged (13,000 × g, 30 min, 4 °C), and the resulting supernatant was used for the assay. […] Absorbance was measured at 405 nm and compared to a control that had 50 μL of buffer solution in place of the extract by Micro-Plate Reader (SpectraMAx® i3, Molecular devices LLC., Wals, Austria). The rat α-glucosidase inhibitory activity was expressed as percent inhibition and was calculated as follows: Inhibition%=ΔAControl405-ΔAExtract405/ΔAControl405×100
All data are presented as mean ± S.D. Statistical analyses were carried out using the statistical packages SPSS 11 (Statistical Package for Social Science 11, SPSS Inc., Chicago, IL, USA) program and the significance of each group was verified with the analyses of one-way ANOVA followed by Duncan’s test of p < 0.05. In addition, statistical significances in the animal study were determined by Student’s t-test (*p < 0.05; **p < 0.01; and *** p < 0.001). […]

Sprague–Dawley (SD) rats [2] = experiment: Starch loading test, postprandial blood glucose in SD rats; assay type: in vivo, rat; details: extracts 0.5 g/kg
From the text: (§1) All animal procedures were approved by the Institutional Animal Care and Use Com-[…]) of […] University (Approval number: HNU2016-0015-1). This study is reported in accordance with ARRIVE guidelines (https://arriveguidelines.org). Four-week-old male Sprague-Dawley (SD) rats were purchased from Joongang Experimental Animal Co. (Seoul, Korea) and fed with a standard diet (Samyang Diet Co., Seoul, Korea) and with water ad libitum for one week. Effect on hyperglycemia-induced by carbohydrate loads in Sprague-Dawley (SD) rats was determined by the inhibitory action of coffee extracts on postprandial hyperglycemia as described in [30]. […] In the case of the administration group, administration samples were prepared by mixing starch or sugar with coffee extracts by dose in advance were orally administrated using a zonde injection needle. […] The glucose level in blood was determined by the glucose oxidase method and compared with that of the control group. The parameters for blood glucose levels will be calculated Maximum observed peak blood glucose level (Cmax) and the time at which it is observed (Tmax) were determined based on the observed data. […] In addition, statistical significances in the animal study were determined by Student's t-test (*p < 0.05; **p < 0.01; and *** p < 0.001). […]

Sprague–Dawley (SD) rats [3] = experiment: Sucrose loading test, postprandial blood glucose in SD rats; assay type: in vivo, rat; details: sucrose 2.0 g/kg oral, extracts 0.5 g/kg, Acarbose 5.0 mg/kg, mean ± S.D., n = 5
From the text: as §1

## C[C@H]1O[C@H](O[C@H]2[C@H](O)[C@@H](O)[C@@H](O[C@H]3[C@H](O)[C@@H](O)C(O)O[C@@H]3CO)O[C@@H]2CO)[C@H](O)[C@@H](O)[C@@H]1N[C@H]1C=C(CO)[C@@H](O)[C@H](O)[C@H]1O (some centres unmarked) [Acarbose, acarbose]
[1]; Ethanol extract row
  IC50 rat intestinal α-glucosidase: < 0.50 mg/mL
[1]; Water extract row
  IC50 rat intestinal α-glucosidase: < 0.50 mg/mL
Sprague–Dawley (SD) rats [2]; starch 2.0 g/kg oral, Acarbose 5.0 mg/kg, mean ± S.D., n = 5
  AUCt (blood glucose-time curve): 389.0 ± 36.8^*** hr·mg/dL
Sprague–Dawley (SD) rats [2]; starch 2.0 g/kg, Acarbose 5 mg/kg oral
  blood glucose level after starch loading compared to control: significantly higher blood lowering than all the coffee types and the controls
Sprague–Dawley (SD) rats [3]
  AUCt (blood glucose-time curve): 376.2 ± 17.2^*** hr·mg/dL
